Values joined by “and” are separate entries in the source; they are usually repeats but may differ in a detail not shown here. Equal entries are not always repeated.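 Interpolation was linear, between the two tested concentrations surrounding the appropriate level; five concentrations were tested over 48 hours in 96-well plates. At the GI50, growth is halved. The concentration for full growth arrest is given as TGI.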
Tests used:
Experiment in all cases: NCI-60 cell line screen, 48 h
CCRF-CEM leukemia = tested on: CCRF-CEM leukemia
ACHN renal = tested on: ACHN renal
HCT-15 colon = tested on: HCT-15 colon
SNB-75 CNS = tested on: SNB-75 CNS
SK-OV-3 ovarian = tested on: SK-OV-3 ovarian
KM12 colon = tested on: KM12 colon
UACC-257 melanoma = tested on: UACC-257 melanoma
RXF 393 renal = tested on: RXF 393 renal
UACC-62 melanoma = tested on: UACC-62 melanoma
SK-MEL-28 melanoma = tested on: SK-MEL-28 melanoma

SMILES	GI50 (CCRF-CEM leukemia)	TGI (CCRF-CEM leukemia)	GI50 (ACHN renal)	TGI (ACHN renal)	GI50 (HCT-15 colon)	TGI (HCT-15 colon)	GI50 (SNB-75 CNS) [µM]	TGI (SNB-75 CNS)	GI50 (SK-OV-3 ovarian)	TGI (SK-OV-3 ovarian)	GI50 (KM12 colon) [µM]	TGI (KM12 colon)	GI50 (UACC-257 melanoma)	TGI (UACC-257 melanoma)	GI50 (RXF 393 renal) [nM]	TGI (RXF 393 renal) [µM]	GI50 (UACC-62 melanoma)	TGI (UACC-62 melanoma)	GI50 (SK-MEL-28 melanoma)	TGI (SK-MEL-28 melanoma)
COc1cc(/C(Cl)=C/C=C/C(=O)c2c(C)[n+]([O-])c3ccc(Cl)cc3[n+]2[O-])cc(OC)c1OC	1620 nM	> 50 µM	5150 nM	11.6 µM	7350 nM	> 50 µM	4.06	19.6 µM	7.4 µM	31.5 µM	5.07	> 50 µM	16.6 µM	> 50 µM	9150	28	3.42 µM	27.1 µM	6850 nM	49.4 µM
CN1CCN(c2ccc(C(=O)Nc3n[nH]c4ccc(Cc5cc(F)cc(F)c5)cc34)c(NC3CCOCC3)c2)CC1	2930 nM and 2050 nM	> 10 µM and 5.16 µM	2250 nM and 1420 nM	> 10 µM and 2.8 µM	1870 nM and 1320 nM	6.67 µM and 2.93 µM	1.05	2.36 µM	6.65 µM and 1.7 µM	> 10 µM and 3.19 µM	0.00436	1.49 µM and 1.12 µM	3.72 µM and 1.42 µM	> 10 µM and 2.82 µM	1170	2.69	1.52 µM and 1.6 µM	3.03 µM and 3.1 µM	1600 nM and 1580 nM	3.15 µM and 2.95 µM
COc1cc(-c2nn3c(/C=C4/C(=O)Nc5ccccc54)c(-c4ccc(C)cc4)nc3s2)cc(OC)c1OC			4980 nM	23.7 µM	2680 nM	> 100 µM	0.552	10.7 µM	15.2 µM	39.7 µM	> 100	> 100 µM			2240	14.7	5.47 µM	> 100 µM		
Cc1c2cnccc2c(C)c2c1c1cc(C3OCCCO3)ccc1n2C	291 nM	3.81 µM	318 nM	2.04 µM	281 nM	1.4 µM	0.257	1.37 µM	0.325 µM	1.76 µM	0.5	3.77 µM	0.343 µM	1.8 µM	172	0.921	0.197 µM	0.747 µM	459 nM	1.68 µM
C=CCC1OC(C)(C)Oc2ccc(OCOCCOC)cc21 (centres undefined)				> 100 µM		> 100 µM		> 100 µM		> 100 µM		> 100 µM		> 100 µM		> 100		> 100 µM		> 100 µM
O=C(c1ccccc1)c1c(NCC(O)CN2CCCC2)n(Cc2ccccc2)c(=O)n(Cc2ccccc2)c1=O (centres undefined)	24300 nM	63.6 µM	22300 nM	54.7 µM	17000 nM	32.2 µM	16.9	47.3 µM	34 µM	> 100 µM	15.8	31.7 µM	21 µM	42.3 µM	21600	53.3	17.4 µM	33.2 µM	17600 nM	32.3 µM
CC/C(Cc1ccccc1)=C(\c1ccc(OCCN2CCCCCC2)cc1)c1ccc(OC(=O)NCc2ccccc2)cc1	1560 nM	5.72 µM	1490 nM	5.34 µM	1070 nM	2.94 µM	6.09	13.2 µM	7.59 µM	15.2 µM	1.61	5.49 µM	3.8 µM	11.3 µM	1310	3.35	6.38 µM	13 µM	1440 nM	5.17 µM
c1ccc(SC2(Sc3ccccc3)CCCC2)cc1		> 100 µM		> 100 µM		> 100 µM		> 100 µM		> 100 µM		> 100 µM		> 100 µM		> 100		> 100 µM		> 100 µM
C=CC(=O)Nc1ccc(Nc2nccc(-c3ccc(N4CCCC4)c(C#N)c3)n2)cc1	13800 nM	> 25 µM	2450 nM	> 25 µM	1170 nM	10.3 µM	3.37	> 25 µM	> 25 µM	> 25 µM	> 25	> 25 µM	5.37 µM	17 µM	545	1.71	> 25 µM	> 25 µM	4000 nM	13.1 µM
Cc1[nH]ncc1-c1cc2nc(C3CC4CCN3CC4)[nH]c(=O)c2s1 (centres undefined)	2360 nM	> 100 µM	1880 nM	> 100 µM	2440 nM	> 100 µM	1.01	9.55 µM	14.5 µM	> 100 µM	4.07	> 100 µM	5.79 µM	84 µM	2360	5.96	3.28 µM	17.6 µM	4940 nM	> 100 µM
N=C(c1ccccc1)N(c1ccccc1)c1ccccc1								> 100 µM				> 100 µM		> 100 µM		> 100				> 100 µM
COc1cc2c(cc1O)C=NCC2		> 100 µM		> 100 µM		> 100 µM		> 100 µM		> 100 µM		> 100 µM		> 100 µM				> 100 µM		> 100 µM
O=[As](O)(O)c1ccc(NCc2ccccc2)cc1				> 100 µM		> 100 µM		> 100 µM				> 100 µM		> 100 µM		> 100		> 100 µM		> 100 µM
CC1=C([Se]CC(OC(=O)[C@@H](CSSC(C)(C)C)NC(=O)OC(C)(C)C)C(=O)NC(C)(C)C)C(=O)c2ccccc2C1=O (some centres undefined)			1510 nM	2.84 µM	1660 nM	3.12 µM	1.3	2.59 µM	1.36 µM	2.64 µM	1.26	2.51 µM			1500	2.82	1.51 µM	2.84 µM	1620 nM	2.98 µM
CC1CC2C3CC(F)C4=CC(=O)C=CC4(C)C3(F)C(O)CC2(C)C1(O)C(=O)COC(=O)C(C)(C)C (centres undefined)		> 100 µM		> 100 µM		> 100 µM		> 100 µM				> 100 µM		> 100 µM		76.6		> 100 µM		> 100 µM
CN1C(=O)c2c(ccc3c2OCO3)C2C(O)Cc3cc4c(cc3C21)OCO4 (centres undefined)		9.74 µM		> 100 µM		24.7 µM		5.13 µM		8.37 µM		21.6 µM						> 100 µM		> 100 µM
COc1cc2c(/C=N\N=C(N)N)c(Cl)[nH]c2cc1C	3890 nM	17.5 µM	11100 nM	23.6 µM	18000 nM	34.1 µM			9.03 µM	24.1 µM	7.17	22.6 µM	16.5 µM	32.5 µM	14800	30.1	12 µM	24.6 µM		

SMILES	GI50 (CCRF-CEM leukemia)	TGI (CCRF-CEM leukemia)	GI50 (ACHN renal)	TGI (ACHN renal)	GI50 (HCT-15 colon)	TGI (HCT-15 colon)	GI50 (SNB-75 CNS) [µM]	TGI (SNB-75 CNS)	GI50 (SK-OV-3 ovarian)	TGI (SK-OV-3 ovarian)	GI50 (KM12 colon) [µM]	TGI (KM12 colon)	GI50 (UACC-257 melanoma)	TGI (UACC-257 melanoma)	GI50 (RXF 393 renal) [nM]	TGI (RXF 393 renal) [µM]	GI50 (UACC-62 melanoma)	TGI (UACC-62 melanoma)	GI50 (SK-MEL-28 melanoma)	TGI (SK-MEL-28 melanoma)
O=C(O)c1ccccc1Cc1ccco1				> 100 µM		> 100 µM		> 100 µM		> 100 µM		> 100 µM		> 100 µM		> 100		> 100 µM		
O=C(NCCCCCCCCNC(=O)c1cnc2ccccc2n1)c1cnc2ccccc2n1		> 100 µM		> 100 µM		> 100 µM		> 100 µM		> 100 µM		> 100 µM		> 100 µM		> 100		> 100 µM		
CC1=C(C(=O)NCc2ccccc2)C(c2ccc(C3C(C(=O)NCc4ccccc4)=C(C)NC(C)=C3C(=O)NCc3ccccc3)cc2)C(C(=O)NCc2ccccc2)=C(C)N1		> 100 µM		29.6 µM		39 µM						24.4 µM		32.5 µM		33.4		22.2 µM		25.2 µM
O=C(O)CN(c1ccccc1)S(=O)(=O)c1ccc(NC(=O)c2ccccc2)cc1		> 100 µM		> 100 µM		> 100 µM		> 100 µM		> 100 µM				> 100 µM		> 100		> 100 µM		> 100 µM
CC1[C@@H]2[C@@H](C=C3C4CCC5Cc6nc7c(nc6C[C@@]5(C)C4C[C@H](O)[C@]32CO)CC2CCC3C4=C[C@H]5O[C@@]6(O[C@@](C)(CO)C[C@@H]6O)C(C)[C@@]5(O)[C@]4(C)[C@@H](O)CC3[C@]2(C)C7)O[C@]12CCC(C)(C)O2 (some centres undefined)	0.474 nM				74.4 nM	0.81 µM and 0.626 µM	0.000741	0.0159 µM and 0.0134 µM	< 0.000365 µM	0.0991 µM and 0.0224 µM	0.17	0.611 µM and > 3.65 µM		0.305 µM and 0.392 µM	< 0.365		0.00489 µM	0.0745 µM		0.238 µM
FC(F)(F)C1(Cl)C(c2ccccc2)=C1c1ccccc1		12.1 µM		30.2 µM		27.8 µM				32.4 µM		29 µM		27.2 µM		26.6		27 µM		28.1 µM
CCC(C)CN1C(=O)NC(C)(Cc2ccccc2)C1=O (centres undefined)				> 100 µM				> 100 µM				> 100 µM		> 100 µM		> 100				> 100 µM
COC(=O)[C@@H](NC(=O)NC(=O)NC(=O)CI)C(C)C			1810 nM	3.47 µM	1660 nM	3.16 µM	13.2	26.8 µM	18.3 µM	33 µM	17.4	33.8 µM	13.6 µM	27.8 µM	6350	18.8	14.4 µM	29.9 µM	1880 nM	3.85 µM
CCC1(C)NN=c2s/c(=C/c3ccc(OC)cc3)c(=O)n2N1 (centres undefined)		> 100 µM		> 100 µM				> 100 µM		> 100 µM		> 100 µM				> 100		> 100 µM		> 100 µM
CC(C)(C)OC(=O)NCCNC1=CC(=O)c2nc3ccccc3c3ccnc1c23			21500 nM	76.8 µM	19300 nM	47.9 µM	17.8	42.6 µM	43.3 µM	> 100 µM	22.7	66.6 µM	23.5 µM	75.5 µM			19.6 µM	43.2 µM	13300 nM	28.9 µM
CC(C)=CCN=C(N)N		> 100 µM		> 100 µM		> 100 µM				> 100 µM		> 100 µM		> 100 µM		> 100		> 100 µM		> 100 µM
COC(=O)Cc1cc(OC)c(OC)cc1Br		> 100 µM		> 100 µM				> 100 µM		> 100 µM		> 100 µM		> 100 µM				> 100 µM		> 100 µM
CC(=O)N1CCN(C2=Nc3ccccc3CO2)C1=S	32900 nM	> 100 µM	> 100000 nM	> 100 µM	57800 nM	> 100 µM	40.1	> 100 µM	> 100 µM	> 100 µM	> 100	> 100 µM	> 100 µM	> 100 µM			83 µM	> 100 µM	> 100000 nM	> 100 µM
COc1ccc(/C(=N/NC(N)=O)C2(O)C(=O)Nc3ccc([N+](=O)[O-])cc32)cc1 (centres undefined)		32.3 µM		30.6 µM		46.1 µM		69.8 µM		> 100 µM		49.5 µM		39.4 µM				43.6 µM		36.9 µM
N#Cc1cccc(N2C(=O)c3c(c(-c4ccccc4)c(-c4ccc(Sc5ccc(-c6c(-c7ccccc7)c7c(c(-c8ccccc8)c6-c6ccccc6)C(=O)N(c6cccc(C#N)c6)C7=O)cc5)cc4)c(-c4ccccc4)c3-c3ccccc3)C2=O)c1		> 100 µM		> 100 µM		> 100 µM						> 100 µM		> 100 µM		59.2		> 100 µM		> 100 µM
Cc1cccc(C(=O)c2cccc3ccccc23)c1C(=O)O		> 100 µM		> 100 µM		> 100 µM		> 100 µM		> 100 µM				> 100 µM		> 100		> 100 µM		> 100 µM
N#Cc1cc(C#N)c(Cl)nc1N		> 10 µM		> 10 µM		> 10 µM		> 10 µM		> 10 µM		> 10 µM				> 10		> 10 µM		> 10 µM
